Values quoted from earlier work as cited in patent US20110091459A1, “IMIDAZOLE MODULATORS OF MUSCARINIC ACETYLCHOLINE RECEPTOR M3” (AUSPEX PHARMACEUTICALS, INC., priority 2008, published 2011).

Experiments:
[1] = metabolite formed by CYP2A6 mediated hydroxylation of the lactone ring
[2] = in vivo
[3] = in vivo; remark: listed apart in the source

**Q.** With `CC[C@@]1(O)C(=O)OC[C@H]1Cc1cncn1C` [3-hydroxypilocarpine] as the compound, how does the pharmacological activity [1] read?
**A.** The pharmacological activity was “pharmacologically inactive”.

**Q.** Which half-life [2] does the source give for `CC[C@@H]1C(=O)OC[C@@H]1Cc1cncn1C` [Pilocarpine, (3S,4R)-3-ethyl-4-((1-methyl-1H-imidazol-5-yl)methyl)dihydrofuran-2(3H)-one] here?
**A.** Its half-life is 45.6 to 81 min.

**Q.** And the adverse effects [3]?
**A.** Its adverse effects is “blurred vision, nightblindness, and pulmonary edema”.
